According to BigSolDB 2.1:

CN1c2ccccc2C(=O)N2CCc3c([nH]c4ccccc34)[C@H]21
solubility (mole fraction)
Details	283.2 K	288.2 K	293.2 K	298.2 K	303.2 K	313.2 K	323.2 K
in acetone	0.000216	–	0.000303	–	0.00038	0.000513	0.000676
in chloroform	0.000683	–	0.000876	–	0.00105	0.00135	0.00183
in cyclohexane	1.68e-06	–	2.81e-06	–	4.49e-06	6.47e-06	9.36e-06
in dichloromethane	0.000334	0.00037	0.000417	0.00048	0.000571	–	–
in diethyl ether	4.06e-05	5.16e-05	6.93e-05	7.51e-05	9.09e-05	–	–
in ethanol	6.12e-05	–	8.02e-05	–	0.000116	0.000173	0.000257
in ethyl acetate	0.000135	–	0.000165	–	0.000255	0.000321	0.000412
in isopropanol	7e-05	–	8.69e-05	–	0.000119	0.000181	0.000287
in methanol	3.52e-05	–	5.19e-05	–	7.24e-05	0.00011	0.000176
in n-butanol	0.000112	–	0.000139	–	0.000216	0.000317	0.000458
in n-hexane	1.05e-06	–	1.66e-06	–	2.61e-06	4.37e-06	5.84e-06
in n-pentane	1.59e-06	2.2e-06	2.92e-06	3.79e-06	4.7e-06	–	–
